This passage reports IC50 results from patent publication US11034685B2, “Aminopyridine derivatives as TAM family kinase inhibitors” (SignalChem Lifesciences Corporation, priority 2013, dated 2021).

Some results are limits rather than exact numbers.

Common to all, as to format: biochemical
Assay [1] addresses T1, human Mer (578-872) (Homo sapiens, UniProt Q12866).
T1 construct: GST (N); made in house; host or cells: Sf9 insect cells (baculovirus)
T1 sequence (Q12866 578-872): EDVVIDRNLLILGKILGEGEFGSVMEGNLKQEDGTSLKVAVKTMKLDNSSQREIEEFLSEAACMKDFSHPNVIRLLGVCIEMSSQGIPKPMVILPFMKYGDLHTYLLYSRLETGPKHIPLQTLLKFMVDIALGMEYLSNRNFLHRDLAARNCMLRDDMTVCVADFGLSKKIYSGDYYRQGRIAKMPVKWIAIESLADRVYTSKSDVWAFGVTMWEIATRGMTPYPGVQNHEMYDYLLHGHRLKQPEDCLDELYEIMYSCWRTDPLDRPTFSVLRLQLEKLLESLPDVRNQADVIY
Nature of the assay: Kinase enzymatic activity assay ([33P]-ATP phosphate transfer), Mer. To be noted: inhibitory activity on Mer; class symbols. On the procedure:
(§1) Preparation of Active Recombinant Kinase Proteins:
(§2) Recombinant human Tyro3 (455-end, the gene accession number NM_006293), human Axl (473-end, the gene accession number NM_021913) and human Mer (578-872, the gene accession number NM_006343) were independently expressed by baculovirus in Sf9 insect cells using an N-terminal GST tag. The recombinant proteins were stored at −70° C. in a medium containing 50 mM Tris-HCl, pH 7.5, 150 mM NaCl, 10 mM glutathione, 0.1 mM EDTA, 0.25 mM DTT, 0.1 mM PMSF and 25% glycerol. The recombinant proteins were aliquoted into smaller quantities after centrifugation to avoid repeated handling and multiple freeze/thaw cycles for the most favorable performance.
(§3) Preparation of Assay Reagents:
(§4) Kinase Assay Buffer: This buffer solution consisted of the following components: 25 mM MOPS, pH 7.2, 12.5 mM β-glycerol-phosphate, 25 mM MgCl2, 5 mM EGTA, 2 mM EDTA and DTT 0.25 mM which was added prior to use.
(§5) Kinase Dilution Buffer: Kinase Assay Buffer was diluted at a 1:4 ratio (5× dilution) with distilled water.
(§6) [^33P]-ATP assay cocktail: In a designated radioactive working area, a 250 μM [^33P]-ATP assay cocktail was prepared by the addition of the following components: 150 μL of 10 mM ATP stock solution, 100 μL [^33P]-ATP (1 mci/100 μL), 5.75 mL of kinase assay buffer. This solution was stored in 1 mL aliquots at −20 OC.
(§7) ATP stock solution (10 mM): The ATP stock solution was prepared by dissolving 55 mg of ATP in 10 mL of kinase assay buffer. It was stored in 200 μL aliquots at −20° C.
(§8) Active Kinase Stock Solution: The active recombinant kinase protein (0.1 μg/μL) was diluted with Kinase Dilution Buffer and the activity was assayed using a serial dilution method. The specific activity is expressed in nmoL/min/mg.
(§9) Substrates: poly(4:1 glu:tyr) is the substrate used for each kinase Tyro3, Axl and Mer: The peptide substrate was dissolved in water to give the final concentration of 1 mg/mL.
(§10) Test compound solution: Test compound was dissolved in DMSO to obtain a 10 mM solution. The assay solution was prepared by adding 5 μL of this solution to […] of 10% DMSO/water to obtain the final concentration of 50 μM.
(§11) The enzymatic activity of all three kinases was determined as follows. Using a 96-well plate, the wells were divided into three categories: Blank wells, […] and Test wells. In Test wells, 5 μL of the test compound solution and 5 μL of the substrate solution were added. In Control wells, 5 μL of 10% DMSO/water and 5 μL of the substrate solution were added. In Blank wells, 10 μL of 10% DMSO/water was added. To each well was added 10 μL of Active Kinase Stock Solution to make up the volume in each well to 20 μL. All test samples, controls and blanks were run in duplicate. The reaction was initiated by the addition of 5 μL of [^33P]-ATP assay cocktail, bringing the final volume up to 25 μL in every well. The mixture was incubated at room temperature for 30 minutes. The reaction was terminated by transferring 10 μL of the reaction mixture into a Millipore MultiScreen filter plate (cat. number MSPHN6B50). The filter plate was washed in a 1% phosphoric acid solution with constant gentle shaking for 15 minutes and this step was repeated once. After the plate was dried in air, scintillation fluid was added to each well and the radioactivity in each well in CPM was counted by a Microbeta TriLux. The corrected CPM in each test well was determined by subtracting the average value of Blank well values. Percentage of inhibition of the kinase enzymatic activity by the test compound was determined using the following formula: […]
(§12) The IC50 values were determined in a similar way following a serial dilution of the test compound. The percentage of inhibition at each concentration was calculated following the above formula. The IC50 was estimated from the curve of % Inhibition against Concentration in log unit using Prism 5, version 5.01.

Assay [2] concerns the target T2, Recombinant human Tyro3 (455-end) (Homo sapiens, UniProt Q06418).
T2 construct: GST (N); made in house; host or cells: Sf9 insect cells (baculovirus)
T2 sequence (Q06418 455-890 limits assumed): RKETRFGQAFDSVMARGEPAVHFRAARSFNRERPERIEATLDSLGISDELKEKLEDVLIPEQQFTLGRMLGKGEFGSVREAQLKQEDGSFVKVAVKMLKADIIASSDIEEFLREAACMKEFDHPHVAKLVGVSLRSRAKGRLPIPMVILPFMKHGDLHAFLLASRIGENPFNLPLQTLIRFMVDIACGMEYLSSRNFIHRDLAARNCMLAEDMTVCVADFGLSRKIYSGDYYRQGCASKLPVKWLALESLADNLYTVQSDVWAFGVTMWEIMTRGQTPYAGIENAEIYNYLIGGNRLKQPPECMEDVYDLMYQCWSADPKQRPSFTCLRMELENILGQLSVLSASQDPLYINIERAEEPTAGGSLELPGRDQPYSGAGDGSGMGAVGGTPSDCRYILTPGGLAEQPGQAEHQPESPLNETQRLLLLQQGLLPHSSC
Nature of the assay: Kinase enzymatic activity assay ([33P]-ATP phosphate transfer), Tyro3. To be noted: inhibitory activity on Tyro3; class symbols. On the procedure:
as §1, §2, §3, §4, §5, §6, §7, §8, §9, §10, §11, §12

Assay [3] addresses T3, human Axl (473-end) (Homo sapiens, UniProt P30530).
T3 construct: GST (N); made in house; host or cells: Sf9 insect cells (baculovirus)
T3 sequence (P30530 473-894 limits assumed): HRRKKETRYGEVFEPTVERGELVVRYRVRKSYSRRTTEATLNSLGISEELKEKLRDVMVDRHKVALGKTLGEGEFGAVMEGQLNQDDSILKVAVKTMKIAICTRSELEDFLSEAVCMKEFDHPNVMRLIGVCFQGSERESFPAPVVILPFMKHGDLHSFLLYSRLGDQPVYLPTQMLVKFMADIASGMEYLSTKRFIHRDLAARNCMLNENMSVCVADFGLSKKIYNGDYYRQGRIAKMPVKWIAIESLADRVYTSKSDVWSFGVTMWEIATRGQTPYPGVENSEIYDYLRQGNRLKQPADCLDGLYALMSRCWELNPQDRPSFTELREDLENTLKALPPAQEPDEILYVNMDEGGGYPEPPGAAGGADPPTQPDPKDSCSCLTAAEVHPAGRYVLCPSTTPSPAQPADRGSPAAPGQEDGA
The assay can be described thus: Kinase enzymatic activity assay ([33P]-ATP phosphate transfer), Axl. Conditions: inhibitory activity on Axl; class symbols. On the procedure: as §1, §2, §3, §4, §5, §6, §7, §8, §9, §10, §11, §12

One may read the IC50 as the concentration at which inhibition is half-maximal.

For `Nc1ncc(-c2cnn(C3CCOCC3)c2)cc1-c1ncc(-c2ccc(Cl)cc2)o1`, the IC50 in assay [1], in assay [2] and in assay [3] was > 10000 nM throughout.
For `Nc1ncc(-c2cnn(C3CCNCC3)c2)cc1-c1nnc(C2CCCCC2)o1`, the concentration for half-maximal inhibition (IC50) in assay [1], in assay [2] and in assay [3] was < 500 nM each time.
As for `CCCCCCCCCCCCN1CCC(n2cc(-c3cnc(N)c(-c4ncc(-c5ccccc5)o4)c3)cn2)CC1`, the IC50 was 500 to 1000 nM in assay [1], < 500 nM in assay [2] and < 500 nM in assay [3].
Turning to `Nc1ncc(-c2cnn(C3CCN(C(=O)c4ccccc4)CC3)c2)cc1-c1ncc(-c2cccc(Cl)c2)o1`, the IC50 in assay [1] was 1000 to 10000 nM; in assay [2], < 500 nM; in assay [3], < 500 nM.
Turning to `CC(C)(C)OC(=O)N1CCC(n2cc(-c3cnc(N)c(-c4nnc(-c5ccc(C(C)(C)C)cc5)o4)c3)cn2)CC1`, the figures for the IC50 in assay [1], in assay [2] and in assay [3] were < 500 nM, 1000 to 10000 nM and 500 to 1000 nM, respectively.
The like results for `Nc1ncc(-c2cnn(C3CCN(C(=O)Cc4ccccc4)CC3)c2)cc1-c1nc(-c2ccccc2)no1` [1-(4-(4-(6-amino-5-(3-phenyl-1,2,4-oxadiazol-5-yl)pyridin-3-yl)-1H-pyrazol-1-yl)piperidin-1-yl)-2-phenylethanone] were, in that order, 1000 to 10000 nM, 1000 to 10000 nM and 500 to 1000 nM.
The corresponding values for `CC(=O)N1CCC(n2cc(-c3cnc(N)c(-c4nc(-c5ccccc5)no4)c3)cn2)CC1` [1-(4-(4-(6-amino-5-(3-phenyl-1,2,4-oxadiazol-5-yl)pyridin-3-yl)-1H-pyrazol-1-yl)piperidin-1-yl)ethanone] are < 500 nM, < 500 nM and < 500 nM.
For `Nc1ncc(-c2cnn(C3CCN(C(=O)Cc4ccccc4)CC3)c2)cc1-c1nnc(-c2c(Cl)cccc2Cl)o1` [1-(4-(4-(6-amino-5-(5-(2,6-dichlorophenyl)-1,3,4-oxadiazol-2-yl)pyridin-3-yl)-1H-pyrazol-1-yl)piperidin-1-yl)-2-phenylethanone], the IC50 in assay [1], in assay [2] and in assay [3] was 1000 to 10000 nM throughout.
As for `CC(C)CCC(=O)N1CCC(n2cc(-c3cnc(N)c(-c4nnc(-c5c(Cl)cccc5Cl)o4)c3)cn2)CC1` [1-(4-(4-(6-amino-5-(5-(2,6-dichlorophenyl)-1,3,4-oxadiazol-2-yl)pyridin-3-yl)-1H-pyrazol-1-yl)piperidin-1-yl)-4-methylpentan-1-one], the figures for the IC50 in assay [1], in assay [2] and in assay [3] were < 500 nM, 500 to 1000 nM and < 500 nM, respectively.
For `CC(=O)N1CCC(n2cc(-c3cnc(N)c(-c4nnc(-c5c(Cl)cccc5Cl)o4)c3)cn2)CC1` [1-(4-(4-(6-amino-5-(5-(2,6-dichlorophenyl)-1,3,4-oxadiazol-2-yl)pyridin-3-yl)-1H-pyrazol-1-yl)piperidin-1-yl)ethanone], the IC50 in assay [1], in assay [2] and in assay [3] was < 500 nM throughout.
As for `CC(C)(C)C(=O)N1CCC(n2cc(-c3cnc(N)c(-c4ncc(-c5cccc(Cl)c5)o4)c3)cn2)CC1` [1-(4-(4-(6-amino-5-(5-(3-chlorophenyl)oxazol-2-yl)pyridin-3-yl)-1H-pyrazol-1-yl)piperidin-1-yl)-2,2-dimethylpropan-1-one], the half-inhibitory concentration (IC50) in assay [1] was 1000 to 10000 nM; in assay [2] it was < 500 nM; in assay [3] it was < 500 nM.
Regarding `Nc1ncc(-c2cnn(C3CCN(C(=O)Cc4ccccc4)CC3)c2)cc1-c1ncc(-c2cccc(Cl)c2)o1` [1-(4-(4-(6-amino-5-(5-(3-chlorophenyl)oxazol-2-yl)pyridin-3-yl)-1H-pyrazol-1-yl)piperidin-1-yl)-2-phenylethanone], the IC50 is 1000 to 10000 nM in assay [1], < 500 nM in assay [2] and < 500 nM in assay [3].
In the case of `CC(=O)N1CCC(n2cc(-c3cnc(N)c(-c4ncc(-c5cccc(Cl)c5)o4)c3)cn2)CC1` [1-(4-(4-(6-amino-5-(5-(3-chlorophenyl)oxazol-2-yl)pyridin-3-yl)-1H-pyrazol-1-yl)piperidin-1-yl)ethanone], the IC50 in assay [1], in assay [2] and in assay [3] was < 500 nM throughout.
In the case of `Nc1ncc(-c2cnn(C3CCN(C(=O)Cc4ccccc4)CC3)c2)cc1-c1ncc(-c2ccc(Cl)cc2)o1` [1-(4-(4-(6-amino-5-(5-(4-chlorophenyl)oxazol-2-yl)pyridin-3-yl)-1H-pyrazol-1-yl)piperidin-1-yl)-2-phenylethanone], the 50% inhibitory concentration (IC50) was 1000 to 10000 nM in assay [1], < 500 nM in assay [2] and < 500 nM in assay [3].
On to `Nc1ncc(-c2cnn(C3CCNCC3)c2)cc1-c1nnc(-c2cc(F)ccc2F)o1` [3-(5-(2,5-difluorophenyl)-1,3,4-oxadiazol-2-yl)-5-(1-(piperidin-4-yl)-1H-pyrazol-4-yl)pyridin-2-amine], for which the IC50 in assay [2] and in assay [3] was < 500 nM each time.
For the compound `Nc1ncc(-c2cnn(C3CCNCC3)c2)cc1-c1nnc(-c2c(Cl)cccc2Cl)o1` [3-(5-(2,6-dichlorophenyl)-1,3,4-oxadiazol-2-yl)-5-(1-(piperidin-4-yl)-1H-pyrazol-4-yl)pyridin-2-amine], the concentration for half-maximal inhibition (IC50) in assay [2] and in assay [3] was < 500 nM in each case.
Take `CC(C)(C)OC(=O)N1CCC(n2cc(-c3cnc(N)c(-c4nnc(-c5c(Cl)cccc5Cl)o4)c3)cn2)CC1` [tert-butyl 4-(4-(6-amino-5-(5-(2,6-dichlorophenyl)-1,3,4-oxadiazol-2-yl)pyridin-3-yl)-1H-pyrazol-1-yl)piperidine-1-carboxylate]: the IC50 lay in the range of 1000 to 10000 nM in assay [2] and 500 to 1000 nM in assay [3].
